Values quoted from earlier work in patent US20190177284A1, “TETRAZOLYL-CONTAINING CYCLOPROPANECARBOXAMIDES” (Bayer Pharma Aktiengesellschaft, priority 2017, published 2019).

Tests used:
[1] = due to metabolic liability; cited from earlier work
[2] = cited from earlier work
[3] = cited from earlier work; remark: listed apart in the source
[4] = cited from earlier work; remark: listed apart in the source

Row | Compound | pharmacokinetic profile [1] | aqueous solubility [2] | pharmacokinetic profile in rat [3] | human metabolic stability [4]
1 | C[C@@H](NC(=O)C1(NC(=O)C(F)(F)F)CC1)c1ccc(-c2cccc(Cl)c2C(=O)O)cc1F [MK-0686] | suboptimal | – | – | –
2 | C[C@@H]1CC[C@H](C)N1C(=O)c1ccc([C@@H](C)NC(=O)C2(NC(=O)c3cc(F)cc(C(F)(F)F)c3)CC2)c(F)c1 | – | reasonable | reasonable | poor
